Test results as given in patent US20170239237A1, “PYRROLOQUINOLINE DERIVATIVES AS 5-HT6 ANTAGONISTS, PREPARATION METHOD AND USE THEREOF” (Uniwersytet Jagiellonski, priority 2013, published 2017).
Marks after values point to notes of the source that are not given here.

Assays:
5-HT6 receptor = 5-HT6 receptor (Homo sapiens, UniProt P50406); experiment: Radioligand binding, 5-HT6 ([3H]-LSD displacement); conditions: for displacement % at 10^−6M, 5-HT6: values marked c in the 5-HT6 column
5-HT7 receptor = 5-HT7 receptor (Homo sapiens, UniProt P34969); experiment: Radioligand binding, 5-HT7 ([3H]-5-CT displacement)
dopamine D2L receptor = dopamine D2L receptor (Homo sapiens, UniProt P14416); experiment: Radioligand binding, D2 ([3H]-raclopride displacement)
5-HT1A receptor = biological target: T1, 5-HT1A receptor (Homo sapiens, UniProt P08908); experiment: Radioligand binding, 5-HT1A ([3H]-8-OH-DPAT displacement)
T1 sequence (P08908 1-422): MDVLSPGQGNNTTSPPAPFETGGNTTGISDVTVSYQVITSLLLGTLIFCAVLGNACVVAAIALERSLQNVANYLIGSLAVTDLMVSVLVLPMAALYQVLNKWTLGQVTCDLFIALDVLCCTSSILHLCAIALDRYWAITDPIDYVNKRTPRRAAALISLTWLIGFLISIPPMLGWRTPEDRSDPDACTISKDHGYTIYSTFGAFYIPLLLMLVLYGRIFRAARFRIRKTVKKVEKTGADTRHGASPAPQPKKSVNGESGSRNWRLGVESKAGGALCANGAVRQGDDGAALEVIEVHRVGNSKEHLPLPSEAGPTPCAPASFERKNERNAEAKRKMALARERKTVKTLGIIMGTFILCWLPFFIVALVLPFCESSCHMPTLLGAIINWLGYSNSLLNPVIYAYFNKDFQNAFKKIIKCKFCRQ

Chain of 5-HT6 receptor (P50406 whole entry): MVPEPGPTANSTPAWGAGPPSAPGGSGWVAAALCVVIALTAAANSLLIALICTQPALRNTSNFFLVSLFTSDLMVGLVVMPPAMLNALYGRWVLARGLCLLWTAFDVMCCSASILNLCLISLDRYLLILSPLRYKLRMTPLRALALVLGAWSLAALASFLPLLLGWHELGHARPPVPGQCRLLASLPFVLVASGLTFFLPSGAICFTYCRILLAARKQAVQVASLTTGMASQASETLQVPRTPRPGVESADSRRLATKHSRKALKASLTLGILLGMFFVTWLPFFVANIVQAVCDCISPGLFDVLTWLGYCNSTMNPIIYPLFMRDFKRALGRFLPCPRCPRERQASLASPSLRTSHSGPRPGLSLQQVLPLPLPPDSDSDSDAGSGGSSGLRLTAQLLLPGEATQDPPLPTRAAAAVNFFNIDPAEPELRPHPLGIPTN
Chain of dopamine D2L receptor (P14416 whole entry): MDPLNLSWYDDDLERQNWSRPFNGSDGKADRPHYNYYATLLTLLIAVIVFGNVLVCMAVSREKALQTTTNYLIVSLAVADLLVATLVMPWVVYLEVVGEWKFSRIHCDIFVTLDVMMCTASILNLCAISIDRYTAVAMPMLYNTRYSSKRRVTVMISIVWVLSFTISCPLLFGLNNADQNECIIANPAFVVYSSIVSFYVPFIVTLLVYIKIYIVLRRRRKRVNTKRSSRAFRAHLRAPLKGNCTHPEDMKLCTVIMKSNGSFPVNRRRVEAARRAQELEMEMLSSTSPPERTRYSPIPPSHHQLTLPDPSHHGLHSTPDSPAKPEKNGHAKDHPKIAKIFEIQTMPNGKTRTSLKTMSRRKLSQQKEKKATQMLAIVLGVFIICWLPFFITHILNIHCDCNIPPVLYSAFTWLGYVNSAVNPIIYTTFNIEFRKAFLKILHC
Chain of 5-HT7 receptor (P34969 1-432 limits assumed): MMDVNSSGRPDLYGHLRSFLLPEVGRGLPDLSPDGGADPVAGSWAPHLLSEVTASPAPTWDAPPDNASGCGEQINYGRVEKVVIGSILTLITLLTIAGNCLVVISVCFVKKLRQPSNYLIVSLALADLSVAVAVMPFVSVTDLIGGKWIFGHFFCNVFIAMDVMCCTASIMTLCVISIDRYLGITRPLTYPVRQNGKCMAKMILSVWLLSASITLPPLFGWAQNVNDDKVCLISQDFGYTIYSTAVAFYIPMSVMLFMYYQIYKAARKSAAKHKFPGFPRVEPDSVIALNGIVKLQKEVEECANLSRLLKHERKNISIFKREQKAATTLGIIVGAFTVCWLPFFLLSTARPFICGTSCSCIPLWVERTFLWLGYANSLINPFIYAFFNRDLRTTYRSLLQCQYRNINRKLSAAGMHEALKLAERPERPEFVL

| displacement % at 10^−6M, 5-HT6 (5-HT6 receptor) | Ki (5-HT6 receptor) [µM] | Ki (5-HT7 receptor) [µM] | Ki (dopamine D2L receptor) [µM] | Ki (5-HT1A receptor) [µM] | Compound |
| --- | --- | --- | --- | --- | --- |
| 98^c % | – | – | – | – | O=S(=O)(c1cccc(C(F)(F)F)c1)n1ccc2c(N[C@H]3CCNC3)nc3ccccc3c21 [Compound 15, (S)-1-((3-(trifluoromethyl)phenyl)sulfonyl)-N-(pyrrolidin-3-yl)-1H-pyrrolo[3,2-c]quinolin-4-amine] |
| – | 0.041 | 8.45 | 1.68 | – | CC(C)(C)c1ccc(S(=O)(=O)n2ccc3c(N4CCNCC4)nc4ccccc4c32)cc1 [Compound 41, 1-((4-(tert-butyl)phenyl)sulfonyl)-4-(piperazin-1-yl)-1H-pyrrolo[3,2-c]quinoline] |
| 99^c % | – | – | – | – | O=S(=O)(c1cccc(C(F)(F)F)c1)n1ccc2c(N[C@@H]3CCNC3)nc3ccccc3c21 [Compound 16, (R)-1-((3-(trifluoromethyl)phenyl)sulfonyl)-N-(pyrrolidin-3-yl)-1H-pyrrolo[3,2-c]quinolin-4-amine] |
| 96^c % | – | – | – | – | O=S(=O)(c1cccc(Cl)c1)n1ccc2c(NC3CCNC3)nc3ccc(Cl)cc3c21 (stereo not shown) [Compound 25, 8-chloro-1-((3-chlorophenyl)sulfonyl)-N-(pyrrolidin-3-yl)-1H-pyrrolo[3,2-c]quinolin-4-amine] |
| 95^c % | – | – | – | – | O=S(=O)(c1cccc(Cl)c1)n1ccc2c(NC3CCNC3)nc3cc(F)ccc3c21 (stereo not shown) [Compound 24, 7-fluoro-1-((3-chlorophenyl)sulfonyl)-N-(pyrrolidin-3-yl)-1H-pyrrolo[3,2-c]quinolin-4-amine] |
| – | – | 3.8 | 0.342 | 0.127 | CN1CCN(c2nc3ccccc3c3c2ccn3S(=O)(=O)c2ccccc2)CC1 [Compound 53, 1-(phenylsulfonyl)-4-(4-methylpiperazin-1-yl)-1H-pyrrolo[3,2-c]quinoline] |
| 98^c % | – | – | – | – | O=S(=O)(c1cccc2ccccc12)n1ccc2c(N3CCNCC3)nc3ccc(Cl)cc3c21 [Compound 71, 8-chloro-1-(naphthalen-1-ylsulfonyl)-4-(piperazin-1-yl)-1H-pyrrolo[3,2-c]quinoline] |
| 100^c % | – | – | – | – | Nc1ccc(S(=O)(=O)n2ccc3c(NC4CCNC4)nc4ccccc4c32)cc1 (stereo not shown) [Compound 18, 1-((4-aminophenyl)sulfonyl)-N-(pyrrolidin-3-yl)-1H-pyrrolo[3,2-c]quinolin-4-amine] |
| 90^C % | – | – | – | – | O=C(c1cccc(Cl)c1)n1ccc2c(N3CCNCC3)nc3ccccc3c21 [Compound 51, (3-chlorophenyl)-(4-(piperazin-1-yl)-1H-pyrrolo[3,2-c]quinolin-1-yl)methanone] |
| – | – | – | 1.13 | 0.298 | O=S(=O)(c1ccccc1)n1ccc2c(N3CCNCC3)nc3ccccc3c21 [Compound 27, 1-(phenylsulfonyl)-4-(piperazin-1-yl)-1H-pyrrolo[3,2-c]quinoline] |
| 100^c % | – | – | – | – | O=S(=O)(c1cccc(Cl)c1)n1ccc2c(N3CCCNCC3)nc3ccccc3c21 [Compound 75, 1-((3-chlorophenyl)sulfonyl)-4-(1,4-diazepan-1-yl)-1H-pyrrolo[3,2-c]quinoline] |
| 99^c % | – | – | – | – | Nc1ccc(S(=O)(=O)n2ccc3c(N[C@@H]4CCNC4)nc4ccccc4c32)cc1 [Compound 20, (R)-1-((4-aminophenyl)sulfonyl)-N-(pyrrolidin-3-yl)-1H-pyrrolo[3,2-c]quinolin-4-amine] |
| 99^c % | – | – | – | – | O=S(=O)(c1cccc(F)c1)n1ccc2c(N[C@H]3CCNC3)nc3ccccc3c21 [Compound 9, (S)-1-((3-fluorophenyl)sulfonyl)-N-(pyrrolidin-3-yl)-1H-pyrrolo[3,2-c]quinolin-4-amine] |
| 100^c % | – | – | – | – | Nc1ccc(S(=O)(=O)n2ccc3c(N[C@H]4CCNC4)nc4ccccc4c32)cc1 [Compound 19, (S)-1-((4-aminophenyl)sulfonyl)-N-(pyrrolidin-3-yl)-1H-pyrrolo[3,2-c]quinolin-4-amine] |
| 98^c % | – | – | – | – | O=S(=O)(c1cccc(Cl)c1)n1ccc2c(NC3CNC3)nc3ccccc3c21 [Compound 2, 1-((3-chlorophenyl)sulfonyl)-N-(azetidin-3-yl)-1H-pyrrolo[3,2-c]quinolin-4-amine] |
| 86^c % | – | – | – | – | CC(C)c1ccc(S(=O)(=O)n2ccc3c(N4CCNCC4)nc4ccc([N+](=O)[O-])cc4c32)cc1 [Compound 63, 8-nitro-1-((4-isopropylphenyl)sulfonyl)-4-(piperazin-1-yl)-1H-pyrrolo[3,2-c]quinoline] |
| – | 0.036 | – | 0.826 | 0.211 | CN1CCN(c2nc3ccccc3c3c2ccn3S(=O)(=O)c2cccc3ccccc23)CC1 [Compound 58, 1-(naphthalen-1-ylsulfonyl)-4-(4-methylpiperazin-1-yl)-1H-pyrrolo[3,2-c]quinoline] |
| – | – | 3.27 | – | 3.26 | Clc1cccc(Cn2ccc3c(N4CCNCC4)nc4ccccc4c32)c1 [Compound 49, 1-(3-chlorobenzyl)-4-(piperazin-1-yl)-1H-pyrrolo[3,2-c]quinoline] |
| – | 0.101 | 1.29 | – | 6.31 | CC(C)(C)c1ccc(S(=O)(=O)n2ccc3c(NC4CCNC4)nc4ccccc4c32)cc1 (stereo not shown) [Compound 17, 1-((4-(tert-butyl)phenyl)sulfonyl)-N-(pyrrolidin-3-yl)-1H-pyrrolo[3,2-c]quinolin-4-amine] |
| – | 0.009 | 5.22 | – | 7.06 | O=S(=O)(c1cc(F)ccc1F)n1ccc2c(NC3CCNC3)nc3ccccc3c21 (stereo not shown) [Compound 12, 1-((2,5-difluorophenyl)sulfonyl)-N-(pyrrolidin-3-yl)-1H-pyrrolo[3,2-c]quinolin-4-amine] |
| – | 0.008 | – | 0.817 | 0.59 | O=S(=O)(c1ccc(Cl)s1)n1ccc2c(N3CCNCC3)nc3ccccc3c21 [Compound 46, 1-((5-chlorothiophen-2-yl)sulfonyl)-4-(piperazin-1-yl)-1H-pyrrolo[3,2-c]quinoline] |
| 99^c % | – | – | – | – | O=S(=O)(c1ccc2ccccc2c1)n1ccc2c(N3CCNCC3)nc3ccccc3c21 [Compound 44, 1-(naphthalen-2-ylsulfonyl)-4-(piperazin-1-yl)-1H-pyrrolo[3,2-c]quinoline] |
| – | 0.095 | 3.42 | 1.23 | – | O=S(=O)(c1cccc2cccnc12)n1ccc2c(N3CCOCC3)nc3ccccc3c21 [Compound 79, 1-(quinolin-8-ylsulfonyl)-4-(morpholine-4-yl)-1H-pyrrolo[3,2-c]quinoline] |
| 96^c % | – | – | – | – | O=S(=O)(c1cc(F)ccc1F)n1ccc2c(OC3CCNC3)nc3ccccc3c21 (stereo not shown) [Compound 81, 1-((2,5-difluorophenyl)sulfonyl)-4-(pyrrolidin-3-yloxy)-1H-pyrrolo[3,2-c]quinoline] |
| – | 0.028 | 2.96 | 1.56 | – | Cc1ccc2sc(S(=O)(=O)n3ccc4c(N5CCNCC5)nc5ccccc5c43)cc2c1 [Compound 47, 1-((5-methylbenzo[b]thiophen-2-yl)sulfonyl)-4-(piperazin-1-yl)-1H-pyrrolo[3,2-c]quinoline] |
| 90^c % | – | – | – | – | Nc1ccc2nc(N3CCNCC3)c3ccn(S(=O)(=O)c4ccc(Cl)c(Cl)c4)c3c2c1 [Compound 65, 8-amino-1-((3,4-dichlorophenyl)sulfonyl)-4-(piperazin-1-yl)-1H-pyrrolo[3,2-c]quinoline] |

| Compound | displacement % at 10^−6M, 5-HT6 (5-HT6 receptor) | Ki (5-HT6 receptor) [µM] | Ki (5-HT7 receptor) [µM] | Ki (dopamine D2L receptor) [µM] | Ki (5-HT1A receptor) [µM] |
| --- | --- | --- | --- | --- | --- |
| CNC1CCN(c2nc3ccccc3c3c2ccn3S(=O)(=O)c2ccccc2)C1 (stereo not shown) [Compound 26, N-methyl-1-(1-(phenylsulfonyl)-1H-pyrrolo[3,2-c]quinolin-4-yl)pyrrolidin-3-amine] | 90^c % | – | – | – | – |
| O=S(=O)(c1ccc(F)c(F)c1)n1ccc2c(N3CCNCC3)nc3ccccc3c21 [Compound 33, 1-((3,4-difluorophenyl)sulfonyl)-4-(piperazin-1-yl)-1H-pyrrolo[3,2-c]quinolinee] | – | – | 5.01 | 1.78 | 0.311 |
| O=S(=O)(c1ccccc1)n1ccc2c(NC3CCNC3)nc3ccccc3c21 (stereo not shown) [Compound 4, 1-(phenylsulfonyl)-N-(pyrrolidin-3-yl)-1H-pyrrolo[3,2-c]quinolin-4-amine] | – | 0.004 | 7.89 | – | 9.15 |
| CN1CCN(c2nc3ccccc3c3c2ccn3S(=O)(=O)c2ccc(F)cc2)CC1 [Compound 56, 1-((4-fluorophenyl)sulfonyl)-4-(4-methylpiperazin-1-yl)-1H-pyrrolo[3,2-c]quinoline] | – | – | – | 0.393 | 0.152 |
| O=S(=O)(c1ccc(Cl)c(Cl)c1)n1ccc2c(N3CCNCC3)nc3ccccc3c21 [Compound 34, 1-((3,4-dichlorophenyl)sulfonyl)-4-(piperazin-1-yl)-1H-pyrrolo[3,2-c]quinoline] | – | – | 1.98 | 1.55 | – |
| O=S(=O)(c1cccc(C(F)(F)F)c1)n1ccc2c(N3CCNCC3)nc3ccccc3c21 [Compound 35, 1-((3-(trifluoromethyl)phenyl)sulfonyl)-4-(piperazin-1-yl)-1H-pyrrolo[3,2-c]quinoline] | – | – | 6.39 | 2.63 | – |
| 8-carbonitrile-1-(naphthalen-1-ylsulfonyl)-4-(piperazin-1-yl)-1H-pyrrolo[3,2-c]quinoline [Compound 67] | 100^c % | – | – | – | – |
